# Measurements as given in patent US5811278A, “Dipeptidyl peptidase IV from Xanthomonas maltophilia and process for producing the same” (Ajinomoto Co., Inc., priority 1995, dated 1998).
# Like-named read-outs stand apart in the source and are kept apart here. Where a SMILES comes first, the peptide text is derived from it. The star is where a group is joined. βNA = c1ccc2cc(N*)ccc2c1
# Experiments:
# Format in all cases: biochemical
# [1] = molecular target: T1, dipeptidyl peptidase IV obtainable from Xanthomonas maltophilia (Stenotrophomonas maltophilia, UniProt P95782); assay: Substrate specificity for low molecular weight synthetic peptide substrates; conditions: for activity at 500 µM: read-out: Relative activity (%)
# Method: In the present invention, the dipeptidyl peptidase IV activity was measured according to the method of Yoshimoto et al. (J. Biochem., 91:1899-1906 (1982)).
# The used substrates are shown in Table 1, and the concentration thereof was 0.5 mM.
# Using Gly-Pro-β-naphthylamide as the substrate, 0.1 ml of 5 mM Gly-Pro-β-naphthylamide and 0.1 ml of an enzyme solution were added to 0.8 ml of 20 mM Tris-HCl buffer (pH 8.0) containing 5 mM EDTA and allowed to react with each other at 37° C. for 5 minutes, the reaction was terminated by adding 0.5 ml of Fast Garnet GBC (0.1% solution prepared by dissolving it in 1M acetate buffer (pH 4.0) containing 10% Triton X-100) and then absorbance at 550 nm was measured.
# [2] = molecular target: T1, dipeptidyl peptidase IV obtainable from Xanthomonas maltophilia; assay: biochemical
# Target sequence in this assay (P95782 21-741 limits assumed): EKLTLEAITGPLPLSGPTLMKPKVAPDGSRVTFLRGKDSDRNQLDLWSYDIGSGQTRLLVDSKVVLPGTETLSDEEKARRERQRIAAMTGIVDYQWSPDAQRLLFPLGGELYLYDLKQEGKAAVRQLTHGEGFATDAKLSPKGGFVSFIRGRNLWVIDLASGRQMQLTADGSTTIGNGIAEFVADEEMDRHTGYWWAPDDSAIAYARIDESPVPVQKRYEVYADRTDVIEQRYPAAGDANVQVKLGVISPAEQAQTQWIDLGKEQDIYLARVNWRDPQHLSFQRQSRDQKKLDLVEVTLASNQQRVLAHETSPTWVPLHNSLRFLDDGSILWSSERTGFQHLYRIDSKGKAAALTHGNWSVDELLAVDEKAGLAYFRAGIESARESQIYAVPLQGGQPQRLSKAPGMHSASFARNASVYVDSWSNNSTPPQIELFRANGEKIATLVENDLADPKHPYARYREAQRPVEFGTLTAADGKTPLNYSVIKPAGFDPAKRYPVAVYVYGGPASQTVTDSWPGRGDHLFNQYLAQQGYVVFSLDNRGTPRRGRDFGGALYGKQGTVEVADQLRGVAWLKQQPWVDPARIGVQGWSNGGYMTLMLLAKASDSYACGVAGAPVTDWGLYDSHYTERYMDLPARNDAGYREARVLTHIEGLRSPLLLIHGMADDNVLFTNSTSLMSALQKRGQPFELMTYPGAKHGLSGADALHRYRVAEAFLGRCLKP
# [3] = molecular target: T1, dipeptidyl peptidase IV obtainable from Xanthomonas maltophilia; assay: Influence of metal ions on the enzyme activity; conditions: substrate Gly-Pro-β-naphthylamide; for Relative activity (%): metal ion 1 mM, control 100
# Target sequence in this assay (P95782 21-741 limits assumed): as above
# [4] = hydrolysis of the substrate by the enzyme, substrate concentration 0.5 mM
compound,measurement,setting,value
C[C@H](N)C(=O)N[C@@H](C)C(=O)Nc1ccc2ccccc2c1 [Ala--Ala-β-naphthylamide] (H-Ala-Ala-βNA),activity at 500 µM,[1]; [4],100%
C[C@H](N)C(=O)N1CCC[C@H]1C(=O)Nc1ccc2ccccc2c1 [Ala--Pro-β-naphthy1amide] (H-Ala-Pro-βNA),activity at 500 µM,[1],105%
O=C(O)CN(CCN(CC(=O)O)CC(=O)O)CC(=O)O [EDTA],activity at 5000 µM,[2]; read-out: Relative activity (%),100%
"NCC(=O)N1CCC[C@H]1C(=O)Nc1ccc2ccccc2c1 [Gly--Pro-β-naphthylamide, Gly-Pro-β-naphthylamide] (H-Gly-Pro-βNA)",activity at 500 µM,[1]; [4],100%
[Cl][Hg][Cl] [HgCl2],Inhibition of the enzyme activity by metal ion (in words),[3]; 1 mM,inhibited by HgCl2 almost completely
same,Relative activity (%),[3],0%
[Cl][Ni][Cl] [NiCl2],Relative activity (%),[3],100%
O=C(O)c1cc[c]([Hg][Cl])cc1 [PCMB],Relative activity (%),[2],96%
[Cl-].[Cl-].[Zn+2] [ZnCl2],Relative activity (%),[3],95%
Gly--Pro--Ala,Relative activity (%),[1]; [4],40%
Gly--Pro--Leu--Gly (GPLG; printed: Gly--Pro--Leu--Gly),Relative activity (%),[1]; [4],50%
